Experimental data from ChEMBL document CHEMBL1146165, “Structure-based de novo design, synthesis, and biological evaluation of the indole-based PPARgamma ligands (I)” (Bioorg Med Chem Lett, 2006).

Target: T1, Peroxisome proliferator-activated receptor gamma (Homo sapiens, UniProt P37231)
T1 sequence (P37231 whole entry): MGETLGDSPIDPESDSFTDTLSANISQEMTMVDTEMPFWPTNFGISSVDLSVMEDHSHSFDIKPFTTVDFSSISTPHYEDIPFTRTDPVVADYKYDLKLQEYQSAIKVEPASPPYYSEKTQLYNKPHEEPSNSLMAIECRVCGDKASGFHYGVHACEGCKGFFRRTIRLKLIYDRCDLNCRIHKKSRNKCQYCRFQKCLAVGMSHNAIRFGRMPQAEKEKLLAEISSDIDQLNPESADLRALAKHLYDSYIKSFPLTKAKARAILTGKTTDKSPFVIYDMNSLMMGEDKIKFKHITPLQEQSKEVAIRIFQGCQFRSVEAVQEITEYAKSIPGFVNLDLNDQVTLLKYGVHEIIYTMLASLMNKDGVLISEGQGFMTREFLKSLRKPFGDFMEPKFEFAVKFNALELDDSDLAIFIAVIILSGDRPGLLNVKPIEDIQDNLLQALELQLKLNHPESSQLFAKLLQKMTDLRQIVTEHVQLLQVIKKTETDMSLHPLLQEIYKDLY
Experiment: Binding affinity to human PPARgamma

Kd	SMILES
6.86 µM	O=C(NC(Cc1c[nH]c2cc(OCc3ccccc3)ccc12)C(=O)O)c1ccc(Cl)cc1 (configuration not stated)
8.69 µM	O=C(NC(Cc1c[nH]c2cc(OCc3ccccc3)ccc12)(C(=O)O)C(=O)O)c1ccc(Cl)cc1
